What was measured:
[1] = test system: MC38 cells; assay: In vivo efficacy in MC38 cell tumor transplantation mouse model
Experimental: In this example, the experimental effects of Compound 2 and the control compound PLX3397 (purchased from MedChem Express, China) in MC38 and 4T1 mouse models were tested respectively.
The experimental procedure was as follows: • (1) C57BL/6J male mice for use as MC38 transplanted tumor model and Balb/c male mice for use as 4T1 transplanted tumor model, which were 6 weeks old, were purchased from GemPharmatech Co., Ltd, Jiangsu. All the above mice were raised in an SPF laboratory, and the drinking water and padding had been sterilized by high pressure sterilization. All operations related to mice were performed under sterile conditions. • (2) On day 0, approximately 1×10^6 MC38 cells (purchased from ATCC) were injected subcutaneously into the left back of each of the C57BL/6J mice, and approximately 1×10^6 4T1 cells (purchased from ATCC) were injected subcutaneously into the left back of each of the Balb/c mice. • (3) For the MC38 mouse model, starting from the 6th day, the corresponding mice were orally administered with methylcellulose (HKI) (purchased from China National Pharmaceutical Group Corporation) solvent once a day (5 mice); Compound 2 at a dose of 50 mg/kg mouse weight once a day (5 mice); PLX3397 at a dose of 50 mg/kg mouse weight once a day (5 mice). For the 4T1 mouse model, starting from the 6th day, the corresponding mice were orally administered with 10% HS-15 (purchased from BASF, Germany) solvent (5 mice); Compound 2 at a dose of 50 mg/kg mouse weight once a day (5 mice); PLX3397 at a dose of 50 mg/kg mouse weight once a day (5 mice). • (4) Starting from the 6th day, the length/width of the subcutaneous tumor was measured with a vernier caliper every day, and the weight of the mice was recorded every day to determine the effects of Compound 2 and control compound PLX3397 on the weight of mice in different model mice. The results are shown in FIGS. 3 and 6. • (5) The growth trends of subcutaneous tumors in mice of different models were statistically analyzed. The tumor volume was calculated using the following method: length×width×width/2 mm^3. The results are shown in FIGS. 4 and 7. • (6) Isolation of tumor-infiltrating lymphocytes: Tumor tissue was first minced (tissue block less than 1 mm^3) with a surgical blade, resuspended in 6 ml of digestion solution (collagenase IV and 0.005% DNaseI enzyme, both purchased from Sigma, USA), and the mixture was transferred to a 15-ml centrifuge tube. The centrifuge tube was then placed in a shaker at 37° C. and digested with shaking at 220 r/min for 2 hours. The cells were sieved through a 200-mesh sieve and collected in a 50-ml centrifuge tube, and centrifuged at 1500 rpm for 10 minutes. The supernatant was then discarded, and 10 ml of DMEM medium (10% FBS) (purchased from GIBCO, USA) was added to the tube to terminate the digestion. The tube was placed in a centrifuge, and centrifuged at 1500 rpm for another 10 minutes. The supernatant was discarded. At the same time, Percoll separation solution (purchased from Millipore, USA) was prepared, and 90% Percoll separation working solution was prepared using 10×PBS. To a 15 ml centrifuge tube, 3-4 ml of 70% Percoll separation solution was added. The cells were resuspended in 4 ml of 40% Percoll separation solution, and the cell mixture was added to the 70% Percoll separation solution. The centrifuge tube was placed in a centrifuge and subjected to density gradient centrifugation at 25° C., 1260 g, for 30 minutes (speed up 5, speed down 0). After the centrifugation, the centrifuge tube was placed on a centrifuge tube rack, the middle leukocyte layer was aspirated with a pipette, and added to 10 ml of PBS, they were mixed well and placed in a centrifuge, and centrifuged at 1500 rpm. The cell supernatant was discarded after 10 min and the cells were resuspended in 5 ml of PBS, centrifuged at 1500 rpm for another 10 min, and the washing process was repeated once. The cells obtained were leukocytes in the tumor tissue. […]

[2] = test system: M-NSF-60; assay: Proliferation of M-NSF-60 cells with M-CSF (CCK-8, 72 hours); type: cell-based, mouse; conditions: Mus musculus; M-CSF 50 ng/ml in medium, 72 hours incubation, CCK-8; read-out: M-NSF-60 (GI50/μM)
Experimental: (§1) The incubated cells were detected by CCK-8 (purchased from MedChem Express, China) cell viability detection kit (CCK-8 can be reduced by dehydrogenases in living cells to a highly water-soluble yellow formazan product, and the amount of the generated formazan product is proportional to the number of living cells). The number of living cells was quantified by a microplate reader, and the GI50 for each compound was calculated (the results are shown in Table 2).

[3] = target: T1, TEL-CSF1R-BaF3 (Homo sapiens, UniProt P07333); assay: Proliferation of TEL-CSF1R-BaF3 cells (CCK-8, 72 hours); type: cell-based; conditions: 72 hours incubation, CCK-8
T1 construct: expressed in transfected cells; host or cells: mouse BaF3 cells (ATCC), retroviral transduction with MSCV-Puro vector, IL-3 withdrawn; the other entry of the earlier key: ETV6 (P41212, Transcription factor ETV6)
T1 sequence (P07333 582-910 limits assumed): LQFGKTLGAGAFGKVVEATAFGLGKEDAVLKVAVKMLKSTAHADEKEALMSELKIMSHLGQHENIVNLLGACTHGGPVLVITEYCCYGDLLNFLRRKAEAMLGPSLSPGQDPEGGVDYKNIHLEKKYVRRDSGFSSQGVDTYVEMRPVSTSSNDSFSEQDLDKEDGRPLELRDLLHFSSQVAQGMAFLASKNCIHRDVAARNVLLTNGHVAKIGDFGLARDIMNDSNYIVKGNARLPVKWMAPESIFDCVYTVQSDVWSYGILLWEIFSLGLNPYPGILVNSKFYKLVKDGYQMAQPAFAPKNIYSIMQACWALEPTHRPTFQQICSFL
Experimental: as §1
The construction method of the TEL-CSF1R-BaF3 cell line (a cell line stably expressing CSF1R kinase) was as follows: the sequence of human CSF1R kinase region was amplified by PCR and inserted into the MSCV-Puro vector (Clontech) with an N-terminal TEL fragment, and stably transferred into mouse BaF3 cells (purchased from ATCC, USA) by a retroviral method, and IL-3 growth factor was removed, finally a cell line dependent on CSF1R transferred protein was obtained.

COc1cc2nccc(Oc3ccc(NC(=O)Cc4ccc(Cl)c(C(F)(F)F)c4)cc3)c2cc1OC [Example 2, N-(4-((6,7-dimethoxyquinolin-4-yl)oxy)phenyl)-2-(4-chloro-3-(trifluoromethyl)phenyl)-acetamide]
toxicity (mouse body weight) ([1]; 50 mg/kg oral once a day, FIG. 3): no obvious toxicity | inhibition effect of mouse tumors ([1]; 50 mg/kg oral once a day, FIG. 4): good inhibition effect of mouse tumors | inhibitory effect on mouse tumors compared with PLX3397 ([1]; 50 mg/kg oral once a day, as days of administration increased): superior to the effect of the control compound PLX3397 | proportion of M1 macrophages around the tumor versus solvent group ([1]; 50 mg/kg oral, flow cytometry, FIG. 5): much higher than that in the solvent group | proportion of M1 macrophages in the tumor microenvironment versus PLX3397 group ([1]; same dose 50 mg/kg, FIG. 5): higher than that of the PLX3397 group | GI50 [2]: 0.03 µM | GI50 [3]: 0.003 µM
